In article PMC10507085, “Pharmacological inhibition of TBK1/IKKε blunts immunopathology in a murine model of SARS-CoV-2 infection” (Nature Communications, 2023):

Experiments:
Experiment in all cases: biochemical
Set-up in all cases: KINOMEscan competition binding, DNA-tagged kinase against immobilised ligand, qPCR read-out
Settings in all cases: read-out: Percent Control
ACVR1 = ACVR1 (Homo sapiens, UniProt Q04771)
CASK = CASK (Homo sapiens, UniProt O14936)
CDC42BPA = CDC42BPA (Homo sapiens, UniProt Q5VT25)
CDK14 = CDK14 (Homo sapiens, UniProt O94921)
Sequence of CDK14 (O94921 whole entry): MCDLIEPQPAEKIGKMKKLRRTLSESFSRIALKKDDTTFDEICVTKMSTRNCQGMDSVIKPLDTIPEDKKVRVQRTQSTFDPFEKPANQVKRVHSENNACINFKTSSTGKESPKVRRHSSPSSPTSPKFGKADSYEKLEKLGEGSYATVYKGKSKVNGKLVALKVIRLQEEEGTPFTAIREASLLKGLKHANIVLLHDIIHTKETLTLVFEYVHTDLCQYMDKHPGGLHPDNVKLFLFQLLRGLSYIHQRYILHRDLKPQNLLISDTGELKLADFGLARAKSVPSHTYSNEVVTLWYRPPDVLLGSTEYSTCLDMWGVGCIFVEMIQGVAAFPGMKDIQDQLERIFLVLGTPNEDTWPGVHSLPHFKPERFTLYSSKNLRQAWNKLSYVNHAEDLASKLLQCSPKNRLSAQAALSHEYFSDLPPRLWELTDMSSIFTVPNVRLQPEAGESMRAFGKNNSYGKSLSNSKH

CDK2 = CDK2 (Homo sapiens, UniProt P24941)
CDK7 = CDK7 (Homo sapiens, UniProt P50613)
Sequence of CDK7 (P50613 whole entry): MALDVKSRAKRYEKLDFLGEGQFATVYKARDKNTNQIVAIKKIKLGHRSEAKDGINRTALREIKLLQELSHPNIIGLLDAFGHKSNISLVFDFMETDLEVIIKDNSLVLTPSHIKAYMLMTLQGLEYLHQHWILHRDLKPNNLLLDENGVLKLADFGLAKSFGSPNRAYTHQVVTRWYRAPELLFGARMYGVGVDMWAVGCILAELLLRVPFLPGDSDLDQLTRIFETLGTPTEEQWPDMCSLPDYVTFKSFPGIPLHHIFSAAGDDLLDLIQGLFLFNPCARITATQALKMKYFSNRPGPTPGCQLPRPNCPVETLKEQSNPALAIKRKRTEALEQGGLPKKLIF

EPHA6 = EPHA6 (Homo sapiens, UniProt Q9UF33)
INSR = INSR (Homo sapiens, UniProt P06213)
LYN = LYN (Homo sapiens, UniProt P07948)
MAP3K2 = MAP3K2 (Homo sapiens, UniProt Q9Y2U5)
Sequence of MAP3K2 (Q9Y2U5 whole entry): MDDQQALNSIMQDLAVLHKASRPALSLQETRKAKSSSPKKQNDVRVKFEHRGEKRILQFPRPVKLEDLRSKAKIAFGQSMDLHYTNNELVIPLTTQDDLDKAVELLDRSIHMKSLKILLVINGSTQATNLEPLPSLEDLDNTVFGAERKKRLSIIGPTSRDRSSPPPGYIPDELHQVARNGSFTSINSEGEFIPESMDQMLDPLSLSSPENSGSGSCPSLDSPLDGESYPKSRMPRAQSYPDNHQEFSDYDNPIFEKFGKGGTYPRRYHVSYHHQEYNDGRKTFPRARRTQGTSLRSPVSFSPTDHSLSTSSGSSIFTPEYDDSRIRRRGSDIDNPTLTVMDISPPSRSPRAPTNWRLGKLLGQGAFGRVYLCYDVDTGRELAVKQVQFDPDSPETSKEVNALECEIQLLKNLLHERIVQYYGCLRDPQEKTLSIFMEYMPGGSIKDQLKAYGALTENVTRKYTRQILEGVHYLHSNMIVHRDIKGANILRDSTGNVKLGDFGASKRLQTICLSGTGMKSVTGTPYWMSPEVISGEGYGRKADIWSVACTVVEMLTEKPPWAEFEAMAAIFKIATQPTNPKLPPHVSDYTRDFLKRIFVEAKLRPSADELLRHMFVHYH

MAP3K4 = MAP3K4 (Homo sapiens, UniProt Q9Y6R4)
MYLK2 = MYLK2 (Homo sapiens, UniProt Q9H1R3)
PIK3CB = PIK3CB (Homo sapiens, UniProt P42338)
PIP4K2B = PIP4K2B (Homo sapiens, UniProt P78356)
PIP5K1C = PIP5K1C (Homo sapiens, UniProt O60331)
PRKCD = PRKCD (Homo sapiens, UniProt Q05655)
PRKD3 = PRKD3 (Homo sapiens, UniProt O94806)
Sequence of PRKD3 (O94806 whole entry): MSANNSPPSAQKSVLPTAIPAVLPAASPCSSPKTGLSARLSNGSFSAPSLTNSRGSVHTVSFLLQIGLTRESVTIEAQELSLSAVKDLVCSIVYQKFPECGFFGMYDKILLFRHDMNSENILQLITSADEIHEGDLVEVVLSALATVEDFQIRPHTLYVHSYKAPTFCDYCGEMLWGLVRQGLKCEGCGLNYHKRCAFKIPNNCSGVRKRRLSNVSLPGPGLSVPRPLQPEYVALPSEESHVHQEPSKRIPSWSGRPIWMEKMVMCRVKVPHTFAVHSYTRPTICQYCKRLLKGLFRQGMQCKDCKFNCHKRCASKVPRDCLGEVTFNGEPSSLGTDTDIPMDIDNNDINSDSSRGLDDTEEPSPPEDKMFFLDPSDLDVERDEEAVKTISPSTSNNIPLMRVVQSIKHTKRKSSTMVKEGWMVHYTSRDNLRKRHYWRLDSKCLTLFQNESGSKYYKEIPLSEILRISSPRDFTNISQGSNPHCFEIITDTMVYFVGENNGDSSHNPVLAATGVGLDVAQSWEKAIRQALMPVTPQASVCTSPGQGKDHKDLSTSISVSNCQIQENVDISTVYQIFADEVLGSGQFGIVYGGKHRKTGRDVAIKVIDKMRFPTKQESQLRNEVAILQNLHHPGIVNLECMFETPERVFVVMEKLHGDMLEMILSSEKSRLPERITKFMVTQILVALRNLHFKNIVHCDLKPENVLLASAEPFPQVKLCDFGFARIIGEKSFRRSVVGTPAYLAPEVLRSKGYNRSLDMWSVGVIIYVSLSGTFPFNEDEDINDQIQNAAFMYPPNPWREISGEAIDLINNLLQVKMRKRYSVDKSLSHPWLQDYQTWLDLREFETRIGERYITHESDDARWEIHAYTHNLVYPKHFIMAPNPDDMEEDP

PTK2B = PTK2B (Homo sapiens, UniProt Q14289)
Sequence of PTK2B (Q14289 whole entry): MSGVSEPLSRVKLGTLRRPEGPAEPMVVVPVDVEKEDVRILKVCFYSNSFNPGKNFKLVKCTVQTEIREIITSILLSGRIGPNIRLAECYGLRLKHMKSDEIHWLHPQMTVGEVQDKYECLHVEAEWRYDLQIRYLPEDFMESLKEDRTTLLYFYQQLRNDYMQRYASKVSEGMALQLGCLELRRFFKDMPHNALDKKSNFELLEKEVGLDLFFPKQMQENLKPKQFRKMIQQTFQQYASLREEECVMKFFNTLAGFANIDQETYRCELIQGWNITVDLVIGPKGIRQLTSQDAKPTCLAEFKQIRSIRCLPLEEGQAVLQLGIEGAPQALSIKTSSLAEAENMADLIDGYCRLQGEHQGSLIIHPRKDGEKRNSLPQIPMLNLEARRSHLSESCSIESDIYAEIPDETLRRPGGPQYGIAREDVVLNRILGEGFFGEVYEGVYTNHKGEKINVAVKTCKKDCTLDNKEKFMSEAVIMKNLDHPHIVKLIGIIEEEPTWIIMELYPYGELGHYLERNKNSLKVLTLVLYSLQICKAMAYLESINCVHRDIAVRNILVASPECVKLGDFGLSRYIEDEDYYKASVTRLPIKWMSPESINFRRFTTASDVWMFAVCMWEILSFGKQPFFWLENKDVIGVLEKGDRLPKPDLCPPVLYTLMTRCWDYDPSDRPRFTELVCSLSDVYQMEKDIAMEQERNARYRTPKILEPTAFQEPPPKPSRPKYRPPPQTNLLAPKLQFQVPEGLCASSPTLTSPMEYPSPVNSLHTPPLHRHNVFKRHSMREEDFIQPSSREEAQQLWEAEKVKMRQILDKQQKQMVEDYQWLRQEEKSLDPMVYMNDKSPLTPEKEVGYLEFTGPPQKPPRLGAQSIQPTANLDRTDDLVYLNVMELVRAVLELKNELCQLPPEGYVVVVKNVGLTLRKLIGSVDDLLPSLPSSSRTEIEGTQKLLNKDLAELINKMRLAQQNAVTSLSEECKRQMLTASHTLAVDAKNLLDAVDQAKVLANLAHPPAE

STK4 = STK4 (Homo sapiens, UniProt Q13043)
Sequence of STK4 (Q13043 whole entry): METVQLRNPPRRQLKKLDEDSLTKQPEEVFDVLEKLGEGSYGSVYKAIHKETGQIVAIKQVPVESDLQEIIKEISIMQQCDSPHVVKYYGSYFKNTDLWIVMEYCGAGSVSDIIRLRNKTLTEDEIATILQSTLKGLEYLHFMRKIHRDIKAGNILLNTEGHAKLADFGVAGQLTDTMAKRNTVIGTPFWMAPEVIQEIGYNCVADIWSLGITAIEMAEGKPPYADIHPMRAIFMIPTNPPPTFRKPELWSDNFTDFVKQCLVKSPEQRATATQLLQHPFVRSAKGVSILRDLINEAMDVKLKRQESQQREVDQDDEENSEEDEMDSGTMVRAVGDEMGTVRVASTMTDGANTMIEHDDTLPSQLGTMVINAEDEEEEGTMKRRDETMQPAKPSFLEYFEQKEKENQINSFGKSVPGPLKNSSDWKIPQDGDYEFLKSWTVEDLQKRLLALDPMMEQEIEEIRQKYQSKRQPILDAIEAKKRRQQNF

WEE1 = WEE1 (Homo sapiens, UniProt P30291)
Sequence of WEE1 (P30291 whole entry): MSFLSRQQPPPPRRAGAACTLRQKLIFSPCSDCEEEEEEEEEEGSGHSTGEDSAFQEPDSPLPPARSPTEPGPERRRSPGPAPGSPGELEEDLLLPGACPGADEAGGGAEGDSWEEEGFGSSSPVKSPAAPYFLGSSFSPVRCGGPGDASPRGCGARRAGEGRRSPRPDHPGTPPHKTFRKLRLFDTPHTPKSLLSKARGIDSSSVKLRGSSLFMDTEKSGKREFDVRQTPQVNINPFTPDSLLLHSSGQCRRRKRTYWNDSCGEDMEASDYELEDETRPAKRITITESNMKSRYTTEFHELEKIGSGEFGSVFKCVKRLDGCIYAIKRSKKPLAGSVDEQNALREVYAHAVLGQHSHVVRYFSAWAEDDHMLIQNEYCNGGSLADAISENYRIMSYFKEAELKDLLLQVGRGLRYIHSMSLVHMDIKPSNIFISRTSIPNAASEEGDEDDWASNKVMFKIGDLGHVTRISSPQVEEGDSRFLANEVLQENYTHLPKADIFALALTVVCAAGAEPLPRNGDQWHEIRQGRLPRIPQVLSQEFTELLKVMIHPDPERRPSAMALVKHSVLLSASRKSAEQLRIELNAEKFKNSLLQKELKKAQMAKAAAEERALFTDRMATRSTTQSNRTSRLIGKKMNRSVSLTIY

Sequence of ACVR1 (Q04771 whole entry): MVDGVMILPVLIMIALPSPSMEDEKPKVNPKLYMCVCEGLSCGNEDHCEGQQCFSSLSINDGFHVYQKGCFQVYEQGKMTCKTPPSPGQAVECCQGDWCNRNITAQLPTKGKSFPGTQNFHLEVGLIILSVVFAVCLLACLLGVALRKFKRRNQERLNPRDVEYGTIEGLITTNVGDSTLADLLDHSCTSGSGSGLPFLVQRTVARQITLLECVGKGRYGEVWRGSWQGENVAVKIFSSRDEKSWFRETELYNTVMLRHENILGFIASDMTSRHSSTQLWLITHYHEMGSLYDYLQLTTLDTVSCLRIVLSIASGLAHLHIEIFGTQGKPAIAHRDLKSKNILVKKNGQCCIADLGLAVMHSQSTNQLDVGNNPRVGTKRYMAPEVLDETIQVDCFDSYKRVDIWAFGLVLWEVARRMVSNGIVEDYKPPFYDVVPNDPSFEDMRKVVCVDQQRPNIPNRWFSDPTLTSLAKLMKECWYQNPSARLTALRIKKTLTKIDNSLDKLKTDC

Molecule `Oc1ccc(C2=Cc3ccc(O)cc3OC2)cc1` [compound 1, idronoxil] has a remaining binding at 10 µM (ACVR1) of 74%, a remaining binding at 10 µM (CASK) of 65% and a remaining binding at 10 µM (CDC42BPA) of 98%. The remaining binding at 10 µM (CDK14) was 95%, the remaining binding at 10 µM (CDK2) was 92% and the remaining binding at 10 µM (CDK7) was 67%. For the same molecule, the remaining binding at 10 µM (EPHA6) was 99%, the remaining binding at 10 µM (INSR) was 71% and the remaining binding at 10 µM (LYN) was 71%. The remaining binding at 10 µM (MAP3K2) was 83%, the remaining binding at 10 µM (MAP3K4) was 76% and the remaining binding at 10 µM (MYLK2) was 80%. The remaining binding at 10 µM (PIK3CB) was 98%, the remaining binding at 10 µM (PIP4K2B) was 100% and the remaining binding at 10 µM (PIP5K1C) was 25%. For the same molecule, the remaining binding at 10 µM (PRKCD) was 96%, the remaining binding at 10 µM (PRKD3) was 85% and the remaining binding at 10 µM (PTK2B) was 99%. The remaining binding at 10 µM (STK4) was 97% and the remaining binding at 10 µM (WEE1) was 84%.
